# Data reported in paper PMC6240031, “CYP6AE gene cluster knockout in Helicoverpa armigera reveals role in detoxification of phytochemicals and insecticides” (Nature Communications, 2018).
# How the values were obtained:
# Experiment in all cases: substrate depletion, UPLC-MS/MS
# Format in all cases: biochemical
# Conditions in all cases: 20 uM substrate, NADPH regeneration system, 0.1 M potassium phosphate pH 7.4, 30 C, 1 h, microsomes
# CYP6AE19 = biological target: T1, CYP6AE19 (Helicoverpa armigera, UniProt A0A068EVL0)
# T1 construct: full ORF, baculovirus (Bac-to-Bac) in High Five cells, microsomes, co-expressed with H. armigera cytochrome P450 reductase (HaCPR)
# T1 sequence (A0A068EVL0 1-528): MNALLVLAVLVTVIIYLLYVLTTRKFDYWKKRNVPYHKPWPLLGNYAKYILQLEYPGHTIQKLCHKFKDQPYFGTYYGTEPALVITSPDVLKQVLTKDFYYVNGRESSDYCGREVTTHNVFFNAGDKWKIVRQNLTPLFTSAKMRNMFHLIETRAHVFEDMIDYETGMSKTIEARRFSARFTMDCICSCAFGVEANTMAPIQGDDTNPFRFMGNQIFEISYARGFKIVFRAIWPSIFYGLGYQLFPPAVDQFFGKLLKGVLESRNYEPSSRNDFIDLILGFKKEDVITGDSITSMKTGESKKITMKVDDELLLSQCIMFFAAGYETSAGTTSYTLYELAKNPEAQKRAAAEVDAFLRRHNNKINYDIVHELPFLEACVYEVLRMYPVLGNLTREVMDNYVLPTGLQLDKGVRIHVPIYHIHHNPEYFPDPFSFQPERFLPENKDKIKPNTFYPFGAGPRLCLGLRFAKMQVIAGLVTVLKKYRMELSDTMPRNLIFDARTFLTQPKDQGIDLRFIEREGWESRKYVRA
# CYP6AE14 = biological target: T2, CYP6AE14 (Helicoverpa armigera, UniProt A0A068EU65)
# T2 construct: full ORF, baculovirus (Bac-to-Bac) in High Five cells, microsomes, co-expressed with H. armigera cytochrome P450 reductase (HaCPR)
# T2 sequence (A0A068EU65 1-526): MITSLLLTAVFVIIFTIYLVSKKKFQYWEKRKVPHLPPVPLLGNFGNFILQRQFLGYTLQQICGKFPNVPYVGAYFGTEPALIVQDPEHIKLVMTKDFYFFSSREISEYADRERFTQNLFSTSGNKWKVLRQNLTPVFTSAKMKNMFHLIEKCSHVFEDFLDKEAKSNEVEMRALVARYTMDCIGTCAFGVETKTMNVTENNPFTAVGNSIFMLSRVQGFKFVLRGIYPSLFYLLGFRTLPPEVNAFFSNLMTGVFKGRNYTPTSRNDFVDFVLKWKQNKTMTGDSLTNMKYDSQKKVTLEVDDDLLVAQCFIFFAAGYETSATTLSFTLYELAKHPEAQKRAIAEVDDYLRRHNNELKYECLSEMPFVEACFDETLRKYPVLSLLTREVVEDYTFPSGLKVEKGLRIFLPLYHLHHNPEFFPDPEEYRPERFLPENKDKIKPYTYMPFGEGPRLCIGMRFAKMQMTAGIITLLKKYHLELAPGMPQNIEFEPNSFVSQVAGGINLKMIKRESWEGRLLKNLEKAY
# CYP6AE11 = biological target: T3, CYP6AE11 (Helicoverpa armigera, UniProt A0A068ETU4)
# T3 construct: full ORF, baculovirus (Bac-to-Bac) in High Five cells, microsomes, co-expressed with H. armigera cytochrome P450 reductase (HaCPR)
# T3 sequence (A0A068ETU4 1-522): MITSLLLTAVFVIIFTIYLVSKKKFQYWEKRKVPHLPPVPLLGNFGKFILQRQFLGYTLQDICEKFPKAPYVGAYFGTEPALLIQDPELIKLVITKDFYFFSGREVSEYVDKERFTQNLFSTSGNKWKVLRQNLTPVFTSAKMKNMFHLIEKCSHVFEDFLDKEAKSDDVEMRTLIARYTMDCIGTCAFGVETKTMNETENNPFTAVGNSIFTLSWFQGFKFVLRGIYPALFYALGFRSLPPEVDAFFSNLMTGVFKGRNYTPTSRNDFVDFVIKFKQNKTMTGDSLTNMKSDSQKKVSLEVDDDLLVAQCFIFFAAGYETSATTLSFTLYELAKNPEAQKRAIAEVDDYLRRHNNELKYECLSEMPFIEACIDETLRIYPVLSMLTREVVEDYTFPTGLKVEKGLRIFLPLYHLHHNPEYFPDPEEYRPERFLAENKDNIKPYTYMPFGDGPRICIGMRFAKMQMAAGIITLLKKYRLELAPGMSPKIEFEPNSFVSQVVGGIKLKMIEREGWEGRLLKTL
smiles,measurement,setting,value
CCCCCCCCCCCC(C)=O [2-tridecanone],"substrate depletion, UPLC-MS/MS",CYP6AE19,"2-tridecanone was metabolized by three CYP6AE P450s: CYP6AE11, CYP6AE14, and CYP6AE19"
same,"substrate depletion, UPLC-MS/MS",CYP6AE14,"2-tridecanone was metabolized by three CYP6AE P450s: CYP6AE11, CYP6AE14, and CYP6AE19"
same,"substrate depletion, UPLC-MS/MS",CYP6AE11,"2-tridecanone was metabolized by three CYP6AE P450s: CYP6AE11, CYP6AE14, and CYP6AE19"
